Entries after “also recorded” stand apart in the source; their conditions may differ.
Experiments:
[1] = Conversion of compounds in human plasma; format: in vitro ADME; conditions: for Observed metabolite, incubation in human plasma: 1 μM test compound, 37° C., 0-6 hours, nd: not detected
Method: Frozen human plasma was thawed and then centrifuged at 3200×g for 5 minutes to remove debris. The pH value of the supernatant was then measured and adjusted to 7.4±0.1 by adding 1% phosphoric acid or 1 N sodium hydroxide. 2 μL of dosing solution (50 μM for test compounds and 100 μM for positive control (propantheline bromide)) was mixed with 98 μL of blank plasma to achieve 1 μM test compound and 2 μM positive control of final concentration. The mixture was incubated, and samples were withdrawn from the incubations at the pre-determined time points of 0, 0.5, 1, 2, 4 and 6 hours (in duplicate) at 37° C. in water bath. At each corresponding time point 10 μL inhibitor and 20 μL ascorbic acid and 2 μL formic acid (20%) are added, and then added 400 μL of “stop solution” (200 ng/mL tolbutamide plus 200 ng/mL labetalol in 50% ACN/MeOH) to precipitate protein. The substance was mixed thoroughly and thereafter centrifugated at 4,000 rpm for 20 minutes. Then an aliquot of supernatant (50 μL) was transferred from each well to a sample plate and mixed with 100 μL ultrapure water. The plate was shaked at 800 rpm for about 10 minutes before submitting to LC-MS/MS analysis.
(§1) Instrumentation Used for Analysis of Plasma and Hepatocyte Incubation Samples
(§2) Mass spectrometer (LC-MS/MS) Shimadzu LC 20-AD Shimadzu UHPLC API 4000. Analytical column ACQUITY UPLC® BEH Phenyl 1.7 μm 2.1×50 mm. Mobile phase A: 0.1% Formic Acid in Water. Mobile phase B: 0.1% Formic Acid in Acetonitrile. […] Flow rate 0.7 mL/min.

[2] = PK experiments in rats: plasma compound (I) after oral dosing of prodrug; format: in vivo, Wistar rats; conditions: for Observed metabolite, in vivo PK study after oral dosing (rats): plasma
Method: Plasma was placed on water-ice following collection. Final storage at approximately −70° C.
Mobile phase B: Acetonitrile. […] Flow rate 0.5 mL/min.
The rats had unrestricted access to the diet.
Mobile phase B: Acetonitrile+0.2% formic acid. […] Flow rate 0.3 mL/min.
Dosing and blood sampling: Han Wistar rats were supplied by Envigo, UK. […] The rats received a standard laboratory diet Teklad 2014C. The rats had unrestricted access to the diet. […] Rats were given […] (Ic), 487 ag/kg compound (7), 487 ag/kg Compound (4), 674 ag/kg compound (9), 359 ag/kg A6 and 551 ag/kg A2.

human 5-HT2B receptor = molecular target: T1, human 5-HT2B receptor (Homo sapiens, UniProt P41595); assay: 5-HT2B radioligand binding assay ([125I](±)DOI, CHO cell membranes); conditions: read-out: 5-HT2B % @ 10 μM (binding affinity, % inhibition of control specific binding)
T1 construct: host or cells: CHO cells (membrane homogenates)
T1 sequence (P41595 whole entry): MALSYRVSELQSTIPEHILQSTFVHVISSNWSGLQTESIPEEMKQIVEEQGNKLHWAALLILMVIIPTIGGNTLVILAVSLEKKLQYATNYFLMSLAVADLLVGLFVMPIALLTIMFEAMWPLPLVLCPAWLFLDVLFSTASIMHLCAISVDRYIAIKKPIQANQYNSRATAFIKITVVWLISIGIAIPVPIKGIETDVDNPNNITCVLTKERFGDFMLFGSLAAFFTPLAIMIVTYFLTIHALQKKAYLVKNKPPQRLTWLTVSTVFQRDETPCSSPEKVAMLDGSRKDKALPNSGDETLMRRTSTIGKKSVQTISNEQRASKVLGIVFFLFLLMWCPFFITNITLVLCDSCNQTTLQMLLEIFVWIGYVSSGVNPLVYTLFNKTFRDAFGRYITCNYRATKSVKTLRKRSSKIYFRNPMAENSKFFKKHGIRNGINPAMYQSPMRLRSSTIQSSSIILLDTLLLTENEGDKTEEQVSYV
Method: Evaluation of the affinity of compounds for the human 5-HT2B receptor was determined in a radioligand binding assay at Eurofins/Cerep (France). Membrane homogenates prepared from CHO cells expressing the human 5HT2B receptor were incubated for 60 minutes at room temperature with 0.2 nM [1251](±)DOI (1-(4-iodo-2, 5-dimethoxyphenyl)propan-2-amine) in the absence or presence of the test compound in a buffer containing 50 mM Tris-HCl (pH 7.4), 5 mM MgCl2, 10 μM pargyline and 0.1% ascorbic acid. Nonspecific binding is determined in the presence of 1 μM (±)DOI. Following incubation, the samples were filtered rapidly under vacuum through glass fiber filters (GF/B, Packard) presoaked with 0.3% polyethyleneimine (PEI) and rinsed several times with ice-cold 50 mM Tris-HCl using a 96-sample cell harvester (Unifilter, Packard). The filters were dried and counted for radioactivity in a scintillation counter (Topcount, Packard) using a scintillation cocktail (Microscint 0, Packard). The results are expressed as a percent inhibition of the control radioligand specific binding. The standard reference compound was (±)DOI, which was tested in each experiment at several concentrations to obtain a competition curve from which its IC50 is calculated.

human hepatocytes = assay: Conversion of compounds in human hepatocytes; format: in vitro ADME; conditions: 1 μM compound, 37° C.; nd: not detected
Method: Incubations were conducted in 96-well plates at 1 μM compound concentration in duplicate. The hepatocyte cell concentration was 0.5×10^6 cells/mL used for final incubation at 37° C. in an incubator of 5% CO2 95% relative humidity. The medium control samples were included at 0 and 60 minutes in the absence of cells. The total organic concentration was 1% (DMSO 0.1%) in the final incubation. The controls, (7-ethoxycoumarin and 7-hydroxycoumarin) was incubated parallel at […]. 2 μL of dosing solution (50 μM for test compounds and 100 μM for positive control) was mixed with 98 μL of 100 mM PBS to achieve 1 μM test compound and 2 μM positive control of final concentration. The mixture was incubated, and samples were withdrawn from the incubations at pre-determined time points of 0, 0.5, 1, 2, 4 and 6 hour (in duplicate) at 37° C. in water bath. To each sample, 10 μL inhibitor and 20 μL ascorbic acid and 2 μL formic acid (20%) were added followed by 400 μL of stop solution (200 ng/mL tolbutamide plus 200 ng/mL labetalol in 50% ACN/MeOH). The substance was mixed thoroughly and thereafter centrifuged at 4,000 rpm for 20 minutes. An aliquot of supernatant (50 μL) from each well were transferred to a sample plate and mixed with 100 μL ultrapure water. The plate was shaked at 800 rpm for about 10 minutes before submitting to LC-MS/MS analysis.
as §1, §2

SMILES	inhibition at 10 µM (human 5-HT2B receptor) [%]	Observed metabolite, incubation in human plasma [1]	Observed metabolite, incubation in human hepatocytes (human hepatocytes)	Observed metabolite, in vivo PK study after oral dosing (rats) [2]	other results
CCCN1CCC[C@@H]2Cc3c(ccc(O)c3O)C[C@H]21 [(I), (4aR,10aR)-1-Propyl-1,2,3,4,4a,5,10,10a-octahydro-benzo[g]quinoline-6,7-diol, reference compound]					half-life in the plasma assay ([1]; human plasma incubation): short half-life
CCCN1CCC[C@@H]2Cc3c(ccc(OC(=O)C(C)(C)C)c3OC(=O)C(C)(C)C)C[C@H]21 [(Ic), reference compound]	-5				plasma concentrations of compound (I) after oral dosing (in words) ([2]; Wistar rats, oral): extremely low
CCCN1CCC[C@@H]2Cc3c(ccc(O)c3O[C@@H]3O[C@H](COC(C)=O)[C@@H](OC(C)=O)[C@H](OC(C)=O)[C@H]3OC(C)=O)C[C@H]21 [Compound (2), (2R,3R,4S,5R,6S)-2-(acetoxymethyl)-6-(((4aR,10aR)-7-hydroxy-1-propyl-1,2,3,4,4a,5,10,10a-octahydrobenzo[g]quinolin-6-yl)oxy)tetrahydro-2H-pyran-3,4,5-triyl triacetate]	-6	Glucuronide			Observed metabolite, incubation in human plasma ([1]; listed as compound (2)): glucuronide derivative
CCCN1CCC[C@@H]2Cc3c(ccc(OC(C)=O)c3O[C@@H]3O[C@H](COC(C)=O)[C@@H](OC(C)=O)[C@H](OC(C)=O)[C@H]3OC(C)=O)C[C@H]21 [Compound (3), (2S,3R,4S,5R,6R)-2-(((4aR,10aR)-7-acetoxy-1-propyl-1,2,3,4,4a,5,10,10a-octahydrobenzo[g]quinolin-6-yl)oxy)-6-(acetoxymethyl)tetrahydro-2H-pyran-3,4,5-triyl triacetate]	18		Compound (4)		
CCCN1CCC[C@@H]2Cc3c(ccc(O)c3O[C@@H]3O[C@H](CO)[C@@H](O)[C@H](O)[C@H]3O)C[C@H]21 [Compound (4), (2S,3R,4S,5S,6R)-2-(((4aR,10aR)-7-hydroxy-1-propyl-1,2,3,4,4a,5,10,10a-octahydrobenzo[g]quinolin-6-yl)oxy)-6-(hydroxymethyl)tetrahydro-2H-pyran-3,4,5-triol]	0		Compound (I)	Compound (I)	Observed metabolite, in vivo PK study after oral dosing (rats) ([2]; listed as compound (4)): showed conversion in vivo
CCCN1CCC[C@@H]2Cc3c(ccc(O[C@@H]4O[C@H](COC(C)=O)[C@@H](OC(C)=O)[C@H](OC(C)=O)[C@H]4OC(C)=O)c3O)C[C@H]21 [Compound (5), (2R,3R,4S,5R,6S)-2-(acetoxymethyl)-6-(((4aR,10aR)-6-hydroxy-1-propyl-1,2,3,4,4a,5,10,10a-octahydrobenzo[g]quinolin-7-yl)oxy)tetrahydro-2H-pyran-3,4,5-triyl triacetate]	9	Compound (7)	Compound (7)		
CCCN1CCC[C@@H]2Cc3c(ccc(O[C@@H]4O[C@H](COC(C)=O)[C@@H](OC(C)=O)[C@H](OC(C)=O)[C@H]4OC(C)=O)c3OC(C)=O)C[C@H]21 [Compound (6), (2S,3R,4S,5R,6R)-2-(((4aR,10aR)-6-acetoxy-1-propyl-1,2,3,4,4a,5,10,10a-octahydrobenzo[g]quinolin-7-yl)oxy)-6-(acetoxymethyl)tetrahydro-2H-pyran-3,4,5-triyl triacetate]	-5	Compound (7); also recorded: Compound (5)	Compound (7); also recorded: Compound (5)		
CCCN1CCC[C@@H]2Cc3c(ccc(O[C@@H]4O[C@H](CO)[C@@H](O)[C@H](O)[C@H]4O)c3O)C[C@H]21 [Compound (7), (2S,3R,4S,5S,6R)-2-(((4aR,10aR)-6-hydroxy-1-propyl-1,2,3,4,4a,5,10,10a-octahydrobenzo[g]quinolin-7-yl)oxy)-6-(hydroxymethyl)tetrahydro-2H-pyran-3,4,5-triol]	7				
CCCN1CCC[C@@H]2Cc3c(ccc(O[C@@H]4O[C@H](COC(C)=O)[C@@H](OC(C)=O)[C@H](OC(C)=O)[C@H]4OC(C)=O)c3O[C@@H]3O[C@H](COC(C)=O)[C@@H](OC(C)=O)[C@H](OC(C)=O)[C@H]3OC(C)=O)C[C@H]21 [Compound (8), [(2R,3R,4S,5R,6S)-6-[[(4aR,10aR)-1-propyl-6-[(2S,3R,4S,5R,6R)-3,4,5-triacetoxy-6-(acetoxymethyl)tetrahydropyran-2-yl]oxy-3,4,4a,5,10,10a-hexahydro-2H-benzo[g]quinolin-7-yl]oxy]-3,4,5-triacetoxy-tetrahydropyran-2-yl]methyl acetate]	-12				
CCCN1CCC[C@@H]2Cc3c(ccc(O[C@@H]4O[C@H](CO)[C@@H](O)[C@H](O)[C@H]4O)c3O[C@@H]3O[C@H](CO)[C@@H](O)[C@H](O)[C@H]3O)C[C@H]21 [Compound (9), (2R,2′R,3S,3′S,4S,4′S,5R,5′R,6S,6′S)-6,6′-(((4aR,10aR)-1-propyl-1,2,3,4,4a,5,10,10a-octahydrobenzo[g]quinoline-6,7-diyl)bis(oxy))bis(2-(hydroxymethyl)tetrahydro-2H-pyran-3,4,5-triol)]	-5	Compound (7)	Compound (4); also recorded: Compound (7)	Compound (I)	
CCCN1CCC[C@@H]2Cc3c(ccc(OCc4ccccc4)c3O)C[C@H]21 [Compound A2, (4aR,10aR)-7-(benzyloxy)-1-propyl-1,2,3,4,4a,5,10,10a-octahydrobenzo[g]quinolin-6-ol]	30	Compound (I)	Compound (I)	Compound (I)	
CCCN1CCC[C@@H]2Cc3c(ccc(OC)c3O)C[C@H]21 [Compound A6, (4aR,10aR)-7-methoxy-1-propyl-1,2,3,4,4a,5,10,10a-octahydrobenzo[g]quinolin-6-ol]	24		Compound (I)	Compound (I)	

Source: US12319710B2, “Catecholamine prodrugs for use in the treatment of Parkinson's diseases” (H. Lundbeck A/S, priority 2019, dated 2025)
